Test system: pancreatic progenitor cells and pancreatic islet β cells differentiated from human induced pluripotent stem cells
Assay: Immunofluorescence detection of PDX1 and PDX1/INS proteins (human induced pluripotent stem cells)
Type: cell-based
Excerpt: […]

[1] = 2 μM inhibitor in pancreatic progenitor cell stage

Which “number of insulin INS-positive and PDX1-co-stained pancreatic islet β cells in the mature pancreatic islet β cell stage” value (2 μM inhibitor added in pancreatic progenitor cell stage, immunofluorescence) does the source give for `Oc1nc(-c2ccc(C(F)(F)F)cc2)nc2c1CSCC2` [XAV-939] here?
Its value is “significantly increased”.

And the “PDX1-positive pancreatic progenitor cells (immunofluorescence)” value [1]?
Its value is “significantly increased”.

And the “cell growth (total cell number by DAPI)” value [1]?
The value was “did not affect the cell growth”.

From patent publication US20220186188A1, “Method for Obtaining Pancreatic Progenitor Cells and Pancreatic Islet Beta Cells By Means of Differentiation of Human Pluripotent Stem Cells” (Asia Regenerative Medicine, Ltd., priority 2019, published 2022)
